This test concerns the target T1, CCR2 (Homo sapiens, UniProt P41597).
T1 construct: Membranes were prepared from THP-1 cells; endogenous in cells; host or cells: THP-1 cells (membrane preparation)
T1 sequence (P41597 1-360 isoform P41597-2): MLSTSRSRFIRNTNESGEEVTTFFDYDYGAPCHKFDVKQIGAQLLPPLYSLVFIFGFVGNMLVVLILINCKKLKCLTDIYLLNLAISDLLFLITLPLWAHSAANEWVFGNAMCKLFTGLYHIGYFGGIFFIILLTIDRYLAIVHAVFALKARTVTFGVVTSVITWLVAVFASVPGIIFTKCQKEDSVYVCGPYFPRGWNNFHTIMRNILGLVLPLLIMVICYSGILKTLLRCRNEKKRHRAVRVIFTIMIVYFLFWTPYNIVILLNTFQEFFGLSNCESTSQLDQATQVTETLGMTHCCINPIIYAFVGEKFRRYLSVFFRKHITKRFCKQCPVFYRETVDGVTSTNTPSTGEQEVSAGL
As to the kind of experiment: CCR2 receptor membrane binding assay ([125I]MCP-1, THP-1 cell membranes, SPA beads). The conditions noted are these: for remaining activity at 10 µM: @ 10 μM test compound, THP-1 membranes, read-out: CCR2 % ctrl @ 10 μM; for Ki: dissociation constant hKi, [125I]MCP-1 binding to THP-1 membranes. A digest of the protocol:
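hKi was derived by iterative law-of-mass-action fitting of scintillation counts read at 8 h. Compound (1% DMSO final) competed with ca. 25000 cpm [125I]MCP-1 for THP-1 membranes bound to WGA-PVT beads. Buffer: 25 mM HEPES pH 7.2, 5 mM MgCl2, 0.5 mM CaCl2, 0.2% BSA.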

Drawing on US8835440B2, “Cyclic pyrimidin-4-carboxamides as CCR2 receptor antagonists for treatment of inflammation, asthma and COPD” (Boehringer Ingelheim International GmbH, priority 2008, dated 2014), this text covers remaining activity and Ki for 49 molecules.

As to `Cc1nc(NCc2ccc(Cl)c(F)c2)c(C)c(C(=O)N2CCC(N3CCC(N(C)S(C)(=O)=O)CC3)CC2)n1` [Example 80], the remaining activity at 10 µM was 7% and the affinity, expressed as Ki, was 53 nM.
The matching figures for `Cc1c(NCc2ccc(Cl)c(Cl)c2)ncnc1C(=O)N1CCC(N2CCC(S(N)(=O)=O)CC2)CC1` [Example 228]: 16% and 331 nM.
`Cc1c(NCCc2ccc(Cl)c(Cl)c2)ncnc1C(=O)N1CCC(N2CC[C@H](O)C2)CC1` [Example 166]: the remaining activity at 10 µM was 16%; the Ki (usually the dissociation constant of the complex between target and ligand, obtained from inhibition or displacement) is 227 nM.
On the same counts, the results for `Cc1c(NCc2ccc(C(C)(C)C)cc2)ncnc1C(=O)N1CCC(N2CCC(c3ccccc3)CC2)CC1` [Example 225] are 0% and 21 nM.
Molecule `Cc1c(NCC2CCC(c3ccccc3)C2)ncnc1C(=O)N1CCC(N2CCC(N(C)S(C)(=O)=O)CC2)CC1` (centres unmarked) [Example 159d] yielded a Ki of 15 nM.
Molecule `COC1COCCC1NC1CCN(C(=O)c2ncnc(NC3Cc4ccccc4C3)c2C)CC1` (centres unmarked) [Example 159ec] came in with a Ki of 961 nM.
For the molecule `Cc1c(NCC2CCCN(c3ccccc3)C2)ncnc1C(=O)N1CCC(N2CCOCC2)CC1` (centres unmarked) [Example 42], the remaining activity at 10 µM worked out at 16% and the Ki worked out at 433 nM.
The matching figures for `Cc1nc(NC[C@@H]2CCN(c3ccccc3)C2)c(C)c(C(=O)N2CCC(N3CCC(N(C)S(C)(=O)=O)CC3)CC2)n1` [Example 85]: 13% and 55 nM.
The matching figures for `Cc1c(NC2CCCCC2)ncnc1C(=O)N1CCC(N2CCC(O)CC2)CC1` [Example 28]: 58% and 4180 nM.
For the molecule `Cc1c(NCc2ccc(C(C)(C)C)cc2)ncnc1C(=O)N1CCC(NC2CCOCC2n2ncnn2)CC1` (centres unmarked) [Example 228gp], the Ki is 1350 nM.
`Cc1nc(NCC2CCN(c3ccccc3)C2)c(C)c(C(=O)N2CCC(N3CCC(N(C)S(C)(=O)=O)CC3)CC2)n1` (centres unmarked) [Example 84]: the remaining activity at 10 µM was found to be 4% and the Ki came out at 69 nM.
On the same counts, the results for `Cc1nc(NCc2ccc(C(C)(C)C)cc2)c(C)c(C(=O)N2CCC(N3CCC(N(C)S(C)(=O)=O)CC3)CC2)n1` [Example 83] are 3% and 43 nM.
On the same counts, the results for `Cc1nc(NCc2ccc(Cl)c(Cl)c2)c(C)c(C(=O)N2CCC(N3CCC(N(C)S(C)(=O)=O)CC3)CC2)n1` [Example 82] are 4% and 43 nM.
The matching figures for `Cc1cc(CNc2ncnc(C(=O)N3CCC(N4CCCCC4)CC3)c2C)ccc1F` [Example 135]: 19% and 888 nM.
`Cc1c(NCC2CCCC(C(C)C)C2)ncnc1C(=O)N1CCC(N2CCC(N(C)S(C)(=O)=O)CC2)CC1` (centres unmarked) [Example 159zb] registered a Ki of 15 nM.
`CCS(=O)(=O)N(C)C1CCN(C2CCN(C(=O)c3ncnc(NCCc4ccc(Cl)c(Cl)c4)c3C)CC2)CC1` [Example 36]: the remaining activity at 10 µM was determined as 1% and the affinity, expressed as Ki, was 10 nM.
On the same counts, the results for `Cc1c(NCC2CCN(c3ccccc3)C2)ncnc1C(=O)N1CCC(N2CCC(N(C)S(C)(=O)=O)CC2)CC1` (centres unmarked) [Example 60] are 5% and 44 nM.
On to `Cc1ccc([C@H]2CC[C@H](CNc3ncnc(C(=O)N4CCC(N5CCC(N(C)S(C)(=O)=O)CC5)CC4)c3C)O2)cc1` [Example 159gb], for which the Ki worked out at 39 nM.
Still for that read-out and setting: then `Cc1c(NCc2ccc(C(C)(C)C)cc2)ncnc1C(=O)N1CCC(N2CCC(COc3ccccc3)C2)CC1` (centres unmarked) [Example 228ge], with 37 nM.
With `Cc1nc(NCC2CCCN(c3ccccc3)C2)c(C)c(C(=O)N2CCC(N3CCC(N(C)S(C)(=O)=O)CC3)CC2)n1` (centres unmarked) [Example 87], the remaining activity at 10 µM was 9% and the Ki is 78 nM.
With `CNC(=O)C[C@@H]1CCCN1C1CCN(C(=O)c2ncnc(NCc3ccc(C(C)(C)C)cc3)c2C)CC1` [Example 215], the remaining activity at 10 µM amounted to 42% and the Ki came out at 2150 nM.
In the case of `CO[C@@H]1COCC[C@@H]1NC1CCN(C(=O)c2ncnc(NC[C@H]3C[C@@H](c4ccccc4)C3)c2C)CC1` [Example 275dg], the affinity corresponds to a Ki of 12 nM.
As for `CCN(C1CCN(C2CCN(C(=O)c3ncnc(NCCc4ccc(Cl)c(Cl)c4)c3C)CC2)CC1)S(C)(=O)=O` [Example 178], the remaining activity at 10 µM came to 0% and the affinity corresponds to a Ki of 27 nM.
Molecule `CO[C@@H]1COCC[C@@H]1NC1CCN(C(=O)c2ncnc(NC[C@H]3CCC[C@@H](c4ccc(C)o4)C3)c2C)CC1` [Example 275da] displayed a Ki of 4 nM.
With `Cc1c(NCc2ccc(C(F)(F)F)c(F)c2)ncnc1C(=O)N1CCC(N2CCC(O)CC2)CC1` [Example 10], the remaining activity at 10 µM worked out at 27% and affinity was put at a Ki of 650 nM.
Regarding `COc1nc(NCc2ccc(C(C)(C)C)cc2)c(C)c(C(=O)N2CCC(N3CCC(N(C)S(C)(=O)=O)CC3)CC2)n1` [Example 159b], the Ki was 7 nM.
`Cc1c(NC2CCC(c3ccccc3)CC2)ncnc1C(=O)N1CCC(N2CCC(O)CC2)CC1` (centres unmarked) [Example 22]: the remaining activity at 10 µM came out at 24% and the Ki came out at 466 nM.
On the same counts, the results for `Cc1c(NCc2ccc(C(C)(C)C)cc2)ncnc1C(=O)N1CCC(N2CCOC(C)C2)CC1` (centres unmarked) [Example 209] are 7% and 177 nM.
The matching figures for `Cc1c(NCCc2ccc(Cl)c(Cl)c2)ncnc1C(=O)N1CCC(N2CCC(F)(F)CC2)CC1` [Example 164]: 15% and 353 nM.
Regarding `Cc1c(NCc2ccc(Cl)c(Cl)c2)ncnc1C(=O)N1CCC(N2CCC(N3CCCC3=O)CC2)CC1` [Example 192], the remaining activity at 10 µM was 37% and the Ki turned out to be 1450 nM.
The matching figures for `Cc1c(NCc2ccc(C(C)(C)C)cc2)ncnc1C(=O)N1CCC(N(C)C2CC(C)OC(C)C2)CC1` (centres unmarked) [Example 275c]: 38% and 2930 nM.
The molecule `CNC(=O)C1CCN(C2CCN(C(=O)c3ncnc(NCC4CCCC(c5ccccc5)C4)c3C)CC2)CC1` (centres unmarked) [Example 159i] had a Ki of 24 nM.
In turn, `Cc1c(NCC2CCc3ccccc3N2)ncnc1C(=O)N1CCC(N2CCC(N(C)S(C)(=O)=O)CC2)CC1` (centres unmarked) [Example 159gc] came in with a Ki of 26 nM.
For the molecule `Cc1c(NCc2cccc(C(F)(F)F)c2)ncnc1C(=O)N1CCC(N2CCC(O)CC2)CC1` [Example 4], the remaining activity at 10 µM was determined as 43% and the affinity, expressed as Ki, was 1590 nM.
On the same counts, the results for `COc1ccc(CNc2ncnc(C(=O)N3CCC(N4CCC(N(C)S(C)(=O)=O)CC4)CC3)c2C)cc1` [Example 67] are 27% and 1420 nM.
On the same counts, the results for `COC1CCN(C2CCN(C(=O)c3ncnc(NCC4CCCN(c5ccccc5)C4)c3C)CC2)CC1` (centres unmarked) [Example 97] are 17% and 665 nM.
On the same counts, the results for `Cc1c(NCc2ccc(Cl)c(Cl)c2)ncnc1C(=O)N1CCC(N2CCC3(CCNC3=O)CC2)CC1` [Example 190] are 27% and 783 nM.
In the case of `Cc1cccc(C2CCC(CNc3nc(C)nc(C(=O)N4CCC(N5CCC(N(C)S(C)(=O)=O)CC5)CC4)c3C)O2)c1` (centres unmarked) [Example 159sa], the affinity corresponds to a Ki of 22 nM.
Same read-out and setting: then `Cc1c(NCc2coc(-c3ccccc3)c2)ncnc1C(=O)N1CCC(N2CCC(N(C)S(C)(=O)=O)CC2)CC1` [Example 159mb], with 14 nM.
In the case of `Cc1c(NCC2CCCC(c3ccccc3)C2)ncnc1C(=O)N1CCC(N2CCCCC2)CC1` (centres unmarked) [Example 131], the remaining activity at 10 µM was found to be 6% and the Ki is 55 nM.
Take `COC1COCCC1NC1CCN(C(=O)c2ncnc(NCC3CCC[C@@H](c4ccccc4)C3)c2C)CC1` (some centres unmarked) [Example 228b]: the remaining activity at 10 µM stood at 4% and the affinity, expressed as Ki, was 2 nM.
Molecule `Cc1nc(NC[C@H]2CC[C@H](c3cccc(C(F)(F)F)c3)O2)c(C)c(C(=O)N2CCC(N3CCC(N(C)S(C)(=O)=O)CC3)CC2)n1` [Example 159ga] gave a Ki of 28 nM.
`Cc1c(NCCc2ccc(C(C)(C)C)cc2)ncnc1C(=O)N1CCC(N2CCC(N(C)S(C)(=O)=O)CC2)CC1` [Example 153]: the remaining activity at 10 µM amounted to 1% and the Ki was 27 nM.
Turning to `Cc1c(NC[C@@H]2C[C@H]2c2ccccc2)ncnc1C(=O)N1CCC(N2CCC(N(C)S(C)(=O)=O)CC2)CC1` [Example 152], the remaining activity at 10 µM worked out at 7% and the Ki came out at 44 nM.
As for `CCOC(=O)N1CCC(NC2CCN(C(=O)c3ncnc(NCc4ccc(C(C)(C)C)cc4)c3C)CC2)C(OC)C1` (centres unmarked) [Example 228e], the remaining activity at 10 µM is 40% and the Ki worked out at 3720 nM.
Consider `CNC(=O)C1CCN(C2CCN(C(=O)c3ncnc(NCC4CCN(c5ccccc5)C4)c3C)CC2)CC1` (centres unmarked) [Example 93], for which the remaining activity at 10 µM amounted to 6% and the Ki was 123 nM.
Take `COC1COCCC1NC1CCN(C(=O)c2ncnc(NCC3CCCCC3)c2C)CC1` (centres unmarked) [Example 159dc]: the Ki came to 38 nM.
Take `Cc1c(NCCCCc2ccccc2)ncnc1C(=O)N1CCC(N2CCC(O)CC2)CC1` [Example 15]: the remaining activity at 10 µM turned out to be 14% and affinity was put at a Ki of 200 nM.
The matching figures for `Cc1c(NCc2ccc(C(C)(C)C)cc2)ncnc1C(=O)N1CCC(N2CCC(S(=O)(=O)N(C)C)CC2)CC1` [Example 196]: 19% and 666 nM.
